Assay results as given in patent publication US7560458B2, “Triazolopyrimidine derivatives as glycogen synthase kinase 3 inhibitors” (Janssen Pharmaceutica, N.V., priority 2003, dated 2009).

Experiments:
GSK3β = GSK3β (Homo sapiens, UniProt P49841); assay: GSK3beta assay (SPA, biotinylated phosphorylated CREB peptide, ATP-P33); assay type: biochemical; conditions: −log IC50 (M); given as ranges (>8; 7-8; <7); read-out: pIC50 (GSK3beta) (converted)
Method: (§1) GSK3beta assays were performed at room temperature in a 100 μl reaction volume of 25 mM Tris (ph 7.4) containing 10 mM MgCl2.6H2O 1 mM DTT, 0.1 mg/ml BSA, 5% glyceol and containing 5.7 ng/μl GSK3β, 5 μM biotinylated phosphorylated CREB peptide, 1 μM APT, 0.85 μCi/ml ATP-P^33 and a suitable amount of a test compound of formula (I). After one hour, the reaction was terminated by adding 70 μl of Stop mix (0.1 mM APT, 5 mg/ml streptavidin coated PVT SPA bead pH 11.0). The beads to which the phosphorylated CREB peptide is attached were allowed to settle overnight and the radioactivity of the beads was counted in a microtiterplate scintillation counter and compared with the results obtained in a control experiment (without the presence of a test compound) in order to determine the percentage of GSK3β inhibition. The IC50 value, i.e. the concentration (M) of the test compound at which 50% of GSK3β is inhibited, was calculated from the dose response curve obtained by performing the above-described GSKK3β assay in the presence of different amounts of the test compound.

GSK3alpha = GSK3alpha (Homo sapiens, UniProt P49840); assay: GSK3alpha assay (same as the GSK3beta assay, GSK3alpha 0.25 ng/μl); assay type: biochemical; conditions: −log IC50 (M); given as ranges (>8; 7-8; <7); read-out: pIC50 (GSK3alpha) (converted)
Method: as §1
The GSK3alpha assay was performed in the same way as described above for the GSK3beta assay except for the concentration of GSK3alpha which is 0.25 ng/μl.

Sequence of GSK3alpha (P49840 whole entry, species assumed): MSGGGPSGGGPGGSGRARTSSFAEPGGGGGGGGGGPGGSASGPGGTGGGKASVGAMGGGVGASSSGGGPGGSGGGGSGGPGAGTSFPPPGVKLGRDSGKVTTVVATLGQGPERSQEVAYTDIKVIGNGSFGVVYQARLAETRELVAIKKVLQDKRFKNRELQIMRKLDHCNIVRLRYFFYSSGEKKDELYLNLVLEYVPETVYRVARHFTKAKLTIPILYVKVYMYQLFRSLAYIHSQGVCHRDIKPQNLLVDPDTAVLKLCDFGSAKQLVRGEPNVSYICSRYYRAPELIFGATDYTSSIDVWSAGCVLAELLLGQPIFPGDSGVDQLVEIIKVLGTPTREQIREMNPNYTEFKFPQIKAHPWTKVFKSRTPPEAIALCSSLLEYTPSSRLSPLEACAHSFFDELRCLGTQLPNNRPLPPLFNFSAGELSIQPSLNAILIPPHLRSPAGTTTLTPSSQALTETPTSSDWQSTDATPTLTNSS
Sequence of GSK3β (P49841 whole entry, species assumed): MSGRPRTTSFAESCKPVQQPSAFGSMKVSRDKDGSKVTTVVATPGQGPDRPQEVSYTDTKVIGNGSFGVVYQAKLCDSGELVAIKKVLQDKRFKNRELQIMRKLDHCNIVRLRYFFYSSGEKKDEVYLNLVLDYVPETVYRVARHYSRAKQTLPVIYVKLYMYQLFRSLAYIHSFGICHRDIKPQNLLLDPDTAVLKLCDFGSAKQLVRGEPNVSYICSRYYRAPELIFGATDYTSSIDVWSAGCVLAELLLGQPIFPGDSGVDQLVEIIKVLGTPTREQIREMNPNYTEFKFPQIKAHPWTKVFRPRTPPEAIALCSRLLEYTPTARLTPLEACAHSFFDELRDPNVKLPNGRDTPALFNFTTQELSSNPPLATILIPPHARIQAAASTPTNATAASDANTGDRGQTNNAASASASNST

| Compound | IC50 (GSK3β) | IC50 (GSK3alpha) |
| --- | --- | --- |
| CC(=O)Nc1cccc(Nc2ncc3nnn(-c4ccccc4)c3n2)c1 [Compound 59] | < 1e-08 M | < 1e-08 M |
| COCc1cccc(-n2nnc3cnc(Nc4cccc(C(=O)O)c4)nc32)c1 [Compound 121] | 1e-08 to 1e-07 M | 1e-08 to 1e-07 M |
| Fc1cccc(Nc2ncc3nnn(-c4cccc(F)c4)c3n2)c1 [Compound 17] | 1e-08 to 1e-07 M | < 1e-08 M |
| CC(=O)NCc1cccc(Nc2ncc3nnn(-c4ccccc4)c3n2)c1 [Compound 75] | 1e-08 to 1e-07 M | < 1e-08 M |
| CC(=O)Nc1cccc(Nc2ncc3nnn(-c4cccc(S(N)(=O)=O)c4)c3n2)c1 [Compound 63] | < 1e-08 M | < 1e-08 M |
| NC(=O)CNS(=O)(=O)c1cccc(Nc2ncc3nnn(-c4cccc(F)c4)c3n2)c1 [Compound 98] | < 1e-08 M | < 1e-08 M |
| CC(=O)Nc1ccc(Nc2ncc3nnn(-c4cccc(F)c4)c3n2)cn1 [Compound 87] | 1e-08 to 1e-07 M | < 1e-08 M |
| NC(=O)CNC(=O)c1cccc(Nc2ncc3nnn(-c4cccc(F)c4)c3n2)c1 [Compound 89] | < 1e-08 M | < 1e-08 M |
| CC(=O)NCc1cccc(-n2nnc3cnc(Nc4cccc(CO)c4)nc32)c1 [Compound 110] | < 1e-08 M | < 1e-08 M |
| COCc1cccc(-n2nnc3cnc(Nc4cccc(S(N)(=O)=O)c4)nc32)c1 [Compound 85] | 1e-08 to 1e-07 M | < 1e-08 M |
| COCc1cccc(-n2nnc3cnc(Nc4ccc(C(=O)O)cc4)nc32)c1 [Compound 125] | < 1e-08 M | < 1e-08 M |
| OCc1cccc(Nc2ncc3nnn(-c4cccc(CO)c4)c3n2)c1 [Compound 54] | < 1e-08 M | < 1e-08 M |
| O=C(O)c1cccc(Nc2ncc3nnn(-c4cccc(F)c4)c3n2)c1 [Compound 29] | 1e-08 to 1e-07 M | < 1e-08 M |
| CC(=O)c1cccc(Nc2ncc3nnn(-c4ccccc4)c3n2)c1 [Compound 60] | < 1e-08 M | < 1e-08 M |
| CC(=O)NCc1cccc(-n2nnc3cnc(Nc4cccc(C(C)=O)c4)nc32)c1 [Compound 111] | < 1e-08 M | < 1e-08 M |
| CC(=O)NCc1cccc(-n2nnc3cnc(Nc4cccc(NS(C)(=O)=O)c4)nc32)c1 [Compound 99] | < 1e-08 M | < 1e-08 M |

| Compound | IC50 (GSK3β) | IC50 (GSK3alpha) |
| --- | --- | --- |
| COCc1cccc(-n2nnc3cnc(Nc4cccc(C(C)=O)c4)nc32)c1 [Compound 86] | < 1e-08 M | < 1e-08 M |
| O=C(O)Cc1cccc(Nc2ncc3nnn(-c4cccc(F)c4)c3n2)c1 [Compound 25] | 1e-08 to 1e-07 M | < 1e-08 M |
| Cc1ccc(Nc2ncc3nnn(-c4cccc(F)c4)c3n2)cc1O [Compound 21] | < 1e-08 M | < 1e-08 M |
| CC(=O)NCc1cccc(-n2nnc3cnc(Nc4cccc(S(N)(=O)=O)c4)nc32)c1 [Compound 112] | < 1e-08 M | < 1e-08 M |
| CC(=O)Nc1ccc(Nc2ncc3nnn(-c4ccccc4)c3n2)cn1 [Compound 83] | 1e-08 to 1e-07 M | 1e-08 to 1e-07 M |
| CS(=O)(=O)Nc1cccc(Nc2ncc3nnn(-c4cccc(CO)c4)c3n2)c1 [Compound 62] | < 1e-08 M | < 1e-08 M |
| CC(=O)NCc1cccc(Nc2ncc3nnn(-c4cccc(CNC(C)=O)c4)c3n2)c1 [Compound 108] | < 1e-08 M | < 1e-08 M |
| N#Cc1cccc(Nc2ncc3nnn(-c4cccc(Br)c4)c3n2)c1 [Compound 33] | < 1e-08 M | < 1e-08 M |
| CC(=O)c1cccc(Nc2ncc3nnn(-c4cccc(S(N)(=O)=O)c4)c3n2)c1 [Compound 64] | < 1e-08 M | < 1e-08 M |
| COCc1cccc(-n2nnc3cnc(Nc4cccc(S(C)(=O)=O)c4)nc32)c1 [Compound 96] | 1e-08 to 1e-07 M | 1e-08 to 1e-07 M |
| COC(=O)c1cccc(Nc2ncc3nnn(-c4cccc(F)c4)c3n2)c1 [Compound 13] | 1e-08 to 1e-07 M |  |
| NCc1cccc(Nc2ncc3nnn(-c4cccc(F)c4)c3n2)c1 [Compound 79] | 1e-08 to 1e-07 M | 1e-08 to 1e-07 M |
| CC(=O)NCc1cccc(-n2nnc3cnc(Nc4cccc(C#N)c4)nc32)c1 [Compound 107] | < 1e-08 M | < 1e-08 M |
| O=C(O)c1cccc(Nc2ncc3nnn(-c4cccc(CO)c4)c3n2)c1 [Compound 68] |  | 1e-08 to 1e-07 M |
| O=C(O)c1cc(Nc2ncc3nnn(-c4cccc(F)c4)c3n2)ccc1Cl [Compound 70] |  | 1e-08 to 1e-07 M |

The next lines start with the values.

| IC50 (GSK3β) | IC50 (GSK3alpha) | Compound |
| --- | --- | --- |
| 1e-08 to 1e-07 M | < 1e-08 M | CC(C)CC(=O)NCc1cccc(-n2nnc3cnc(Nc4ccc(CCO)cc4)nc32)c1 [Compound 195] |
| 1e-08 to 1e-07 M | 1e-08 to 1e-07 M | COCCOc1cccc(-n2nnc3cnc(Nc4ccc(Cl)cc4)nc32)c1 [Compound 335] |
| < 1e-08 M | < 1e-08 M | O=C(O)Cc1ccc(Nc2ncc3nnn(-c4cccc(CNC(=O)C5CC5)c4)c3n2)cc1 [Compound 207] |
| < 1e-08 M | < 1e-08 M | NS(=O)(=O)c1ccc(Nc2ncc3nnn(-c4cccc(F)c4)c3n2)cc1 [Compound 145] |
| < 1e-08 M | < 1e-08 M | COCc1cccc(-n2nnc3cnc(Nc4cccc(CO)c4)nc32)c1 [Compound 144] |
| 1e-08 to 1e-07 M | < 1e-08 M | OCCc1ccc(-n2nnc3cnc(Nc4ccc(F)cc4)nc32)cc1 [Compound 291] |
| < 1e-08 M | < 1e-08 M | NC(=O)Cc1cccc(-n2nnc3cnc(Nc4ccc(F)cc4)nc32)c1 [Compound 254] |
| < 1e-08 M | < 1e-08 M | NCCc1ccc(Nc2ncc3nnn(-c4cccc(CCO)c4)c3n2)cc1 [Compound 316] |
| < 1e-08 M | < 1e-08 M | COCCOCc1cccc(-n2nnc3cnc(Nc4ccc(Cl)cc4)nc32)c1 [Compound 336] |
| < 1e-08 M | < 1e-08 M | N#CCc1cccc(-n2nnc3cnc(Nc4ccc(CCO)cc4)nc32)c1 [Compound 268] |
| < 1e-08 M | < 1e-08 M | CC(C)(C)OC(=O)NCc1ccc(Nc2ncc3nnn(-c4cccc(F)c4)c3n2)cc1 [Compound 294] |
| < 1e-08 M | < 1e-08 M | CCOC(=O)NCc1cccc(-n2nnc3cnc(Nc4ccc(CCO)cc4)nc32)c1 [Compound 220] |
| < 1e-08 M | < 1e-08 M | COc1ccc(Nc2ncc3nnn(-c4cccc(CNC(C)=O)c4)c3n2)cn1 [Compound 127] |
| 1e-08 to 1e-07 M | 1e-08 to 1e-07 M | COCCOCc1cccc(-n2nnc3cnc(Nc4ccc(CN)cc4)nc32)c1 [Compound 314] |
| < 1e-08 M |  | COCCOCc1cccc(-n2nnc3cnc(Nc4cccc(C#N)c4)nc32)c1 [Compound 290] |
| < 1e-08 M | < 1e-08 M | CCOC(=O)NCc1cccc(-n2nnc3cnc(Nc4ccc(CC(=O)O)cc4)nc32)c1 [Compound 219] |
| < 1e-08 M | < 1e-08 M | CCOC(=O)NCc1cccc(-n2nnc3cnc(Nc4cccc(COC)c4)nc32)c1 [Compound 216] |

| IC50 (GSK3β) | IC50 (GSK3alpha) | Compound |
| --- | --- | --- |
| 1e-08 to 1e-07 M | 1e-08 to 1e-07 M | COCCOCc1cccc(-n2nnc3cnc(Nc4ccc(CCN)cc4)nc32)c1 [Compound 318] |
| < 1e-08 M | < 1e-08 M | COCCOc1cccc(Nc2ncc3nnn(-c4cccc(CCO)c4)c3n2)c1 [Compound 262] |
| < 1e-08 M | < 1e-08 M | CC(C)(C)OC(=O)NCc1cccc(-n2nnc3cnc(Nc4ccc(F)cc4)nc32)c1 [Compound 270] |
| < 1e-08 M | < 1e-08 M | CCOC(=O)NCc1cccc(-n2nnc3cnc(Nc4ccc(OC)nc4)nc32)c1 [Compound 221] |
| < 1e-08 M | < 1e-08 M | N#CCc1cccc(-n2nnc3cnc(Nc4ccc(CCN)cc4)nc32)c1 [Compound 317] |
| < 1e-08 M | < 1e-08 M | COc1cccc(-n2nnc3cnc(Nc4ccc(C(=O)O)cc4)nc32)c1 [Compound 246] |
| 1e-08 to 1e-07 M | < 1e-08 M | COCCOc1cccc(-n2nnc3cnc(Nc4ccc(F)cc4)nc32)c1 [Compound 301] |
| < 1e-08 M | < 1e-08 M | CCOc1cc(Nc2ncc3nnn(-c4cccc(CCO)c4)c3n2)ccc1C(=O)O [Compound 255] |
| < 1e-08 M | < 1e-08 M | CS(=O)(=O)Nc1cccc(Nc2ncc3nnn(-c4cccc(CC#N)c4)c3n2)c1 [Compound 264] |
| 1e-08 M | < 1e-08 M | NCc1ccc(Nc2ncc3nnn(-c4cccc(F)c4)c3n2)cc1 [Compound 295] |
| < 1e-08 M | < 1e-08 M | COCc1cccc(-n2nnc3cnc(Nc4ccc(CCO)cc4)nc32)c1 [Compound 139] |
| 1e-08 to 1e-07 M | 1e-08 to 1e-07 M | O=C(O)Cc1ccc(Nc2ncc3nnn(-c4cccc(CNC(=O)C56CC7CC(CC(C7)C5)C6)c4)c3n2)cc1 [Compound 240] |
| < 1e-08 M | < 1e-08 M | N#CCc1cccc(-n2nnc3cnc(Nc4ccc(F)cc4)nc32)c1 [Compound 265] |
| < 1e-08 M | < 1e-08 M | COCc1cccc(-n2nnc3cnc(Nc4cccc(S(=O)(=O)NCCO)c4)nc32)c1 [Compound 142] |
| 1e-08 to 1e-07 M | 1e-08 M | NC(=O)c1ccc(Nc2ncc3nnn(-c4cccc(CNC(=O)C56CC7CC(CC(C7)C5)C6)c4)c3n2)cc1 [Compound 237] |
| < 1e-08 M | < 1e-08 M | CN(C)C(=O)c1ccc(Nc2ncc3nnn(-c4cccc(F)c4)c3n2)cc1 [Compound 309] |
|  | 1e-08 to 1e-07 M | O=C(O)Cc1cccc(-n2nnc3cnc(Nc4cccc(C(=O)NCCO)c4)nc32)c1 [Compound 177] |
